Experiments:
α4β1 integrin = α4β1 integrin (Homo sapiens (Human), UniProt P05556+P13612); assay: Integrin Adhesion Assay: Protocol 5 (VCAM-coated plate, RPMI-8866 cells with stable LOF mutation of the ITGB7 gene); format: cell-based; conditions: Protocol 5; RPMI-8866 cells with LOF mutation of ITGB7, VCAM; read-out: Mean IC50 α4β1 KO
Outline: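 RPMI-8866 B cells with CRISPR/Cas9 ITGB7 knockout (clonal, verified by flow cytometry) adhered to VCAM-coated wells for 1 h at 37° C in HEPES/NaCl buffer with 1 mM MnCl2, 0.1 mM CaCl2, 1% BSA, 1% DMSO. Bound cells quantified by CellTiter-Glo luminescence after washing; % inhibition versus DMSO and control, 4-parameter fit.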

α4β7 integrin = α4β7 integrin (Homo sapiens (Human), UniProt P13612+P26010); assay: Integrin Adhesion Assay: Protocol 4 (MAdCAM-coated plate, RPMI-8866 cells with stable LOF mutation of the ITGB1 gene); format: cell-based; conditions: Protocol 4; RPMI-8866 cells with LOF mutation of ITGB1, MAdCAM; read-out: Mean IC50 α4β7 KO
Sequence of α4β7 integrin (P13612 34-1032): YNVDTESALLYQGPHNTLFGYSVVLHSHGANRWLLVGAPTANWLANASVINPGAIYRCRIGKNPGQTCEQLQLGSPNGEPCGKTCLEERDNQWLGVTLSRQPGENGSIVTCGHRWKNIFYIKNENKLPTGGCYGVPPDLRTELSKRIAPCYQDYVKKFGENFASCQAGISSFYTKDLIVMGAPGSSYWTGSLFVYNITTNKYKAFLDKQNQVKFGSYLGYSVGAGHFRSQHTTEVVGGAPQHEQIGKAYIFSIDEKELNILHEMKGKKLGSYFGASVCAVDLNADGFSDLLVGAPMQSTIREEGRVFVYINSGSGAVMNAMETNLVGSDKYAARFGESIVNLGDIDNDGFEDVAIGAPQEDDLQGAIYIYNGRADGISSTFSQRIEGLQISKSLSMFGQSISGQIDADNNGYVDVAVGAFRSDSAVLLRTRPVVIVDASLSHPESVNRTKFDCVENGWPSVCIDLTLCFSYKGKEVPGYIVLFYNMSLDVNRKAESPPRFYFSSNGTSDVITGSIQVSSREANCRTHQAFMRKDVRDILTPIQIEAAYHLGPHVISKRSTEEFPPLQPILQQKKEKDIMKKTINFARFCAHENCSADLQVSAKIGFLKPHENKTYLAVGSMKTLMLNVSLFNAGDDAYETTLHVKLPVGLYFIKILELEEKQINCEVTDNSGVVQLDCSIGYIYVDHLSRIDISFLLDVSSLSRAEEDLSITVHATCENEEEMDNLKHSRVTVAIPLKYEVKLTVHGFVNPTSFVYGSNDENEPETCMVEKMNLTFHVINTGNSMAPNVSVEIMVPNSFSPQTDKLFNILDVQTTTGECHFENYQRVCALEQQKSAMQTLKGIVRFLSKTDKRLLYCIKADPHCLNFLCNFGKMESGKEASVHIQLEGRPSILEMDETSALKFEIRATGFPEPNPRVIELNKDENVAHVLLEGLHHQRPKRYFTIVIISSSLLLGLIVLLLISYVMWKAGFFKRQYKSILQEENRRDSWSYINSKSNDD
Sequence of α4β7 integrin (P26010 20-798): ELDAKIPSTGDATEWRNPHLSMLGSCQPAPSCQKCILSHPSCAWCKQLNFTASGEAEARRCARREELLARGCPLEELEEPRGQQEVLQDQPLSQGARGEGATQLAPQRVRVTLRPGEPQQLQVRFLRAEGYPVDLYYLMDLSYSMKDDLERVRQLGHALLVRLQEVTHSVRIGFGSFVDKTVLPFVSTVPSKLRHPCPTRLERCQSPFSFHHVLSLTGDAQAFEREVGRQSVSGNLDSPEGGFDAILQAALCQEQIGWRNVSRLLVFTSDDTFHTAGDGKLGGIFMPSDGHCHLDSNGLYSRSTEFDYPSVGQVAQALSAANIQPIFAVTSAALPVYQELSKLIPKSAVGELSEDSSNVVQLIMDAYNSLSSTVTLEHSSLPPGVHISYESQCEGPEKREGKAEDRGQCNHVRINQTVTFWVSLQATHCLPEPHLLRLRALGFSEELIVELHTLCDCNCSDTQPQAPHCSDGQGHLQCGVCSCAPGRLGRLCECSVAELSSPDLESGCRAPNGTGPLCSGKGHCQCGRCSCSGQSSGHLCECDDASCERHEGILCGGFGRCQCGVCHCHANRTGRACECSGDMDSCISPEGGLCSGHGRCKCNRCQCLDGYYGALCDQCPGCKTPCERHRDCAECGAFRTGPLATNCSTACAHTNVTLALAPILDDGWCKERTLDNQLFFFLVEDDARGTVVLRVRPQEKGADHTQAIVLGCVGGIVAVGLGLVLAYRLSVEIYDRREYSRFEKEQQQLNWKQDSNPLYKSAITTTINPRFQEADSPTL
Outline: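 RPMI-8866 cells with CRISPR/Cas9 knockout of ITGB1 (2×10^6/mL) were added to MAdCAM-coated wells with compound (1% DMSO) in HEPES/NaCl buffer with 1 mM MnCl2, 0.1 mM CaCl2 and 1% BSA, then incubated 1 h at 37 °C. After four washes, adherent cells were quantified by CellTiter-Glo luminescence. Percent inhibition versus DMSO and control compound was fitted to 4-parameter curves.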

Sequence of α4β1 integrin (P13612 34-1032): as the sequence (P13612 34-1032) above
Sequence of α4β1 integrin (P05556 21-798): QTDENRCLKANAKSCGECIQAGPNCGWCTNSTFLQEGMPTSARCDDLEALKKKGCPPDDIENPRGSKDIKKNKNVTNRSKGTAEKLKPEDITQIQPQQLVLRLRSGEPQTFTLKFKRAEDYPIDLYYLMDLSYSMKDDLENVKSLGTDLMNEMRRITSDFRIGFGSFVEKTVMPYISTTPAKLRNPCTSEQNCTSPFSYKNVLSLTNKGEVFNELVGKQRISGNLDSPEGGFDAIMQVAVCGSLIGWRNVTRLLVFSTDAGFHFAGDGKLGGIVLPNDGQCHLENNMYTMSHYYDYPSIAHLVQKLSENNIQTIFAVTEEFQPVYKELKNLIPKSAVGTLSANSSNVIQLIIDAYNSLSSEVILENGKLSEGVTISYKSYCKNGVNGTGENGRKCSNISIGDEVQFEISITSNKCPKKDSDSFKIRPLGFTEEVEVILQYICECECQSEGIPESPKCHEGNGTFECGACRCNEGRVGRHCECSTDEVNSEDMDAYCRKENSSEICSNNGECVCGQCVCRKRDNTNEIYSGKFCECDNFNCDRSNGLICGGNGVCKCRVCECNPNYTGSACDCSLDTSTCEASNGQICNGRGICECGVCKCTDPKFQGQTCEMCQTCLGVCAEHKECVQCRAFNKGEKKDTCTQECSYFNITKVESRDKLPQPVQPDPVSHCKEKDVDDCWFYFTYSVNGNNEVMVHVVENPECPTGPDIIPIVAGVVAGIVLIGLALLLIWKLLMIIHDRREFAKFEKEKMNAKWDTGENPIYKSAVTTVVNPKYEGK

Row | IC50 (α4β1 integrin) [nM] | IC50 (α4β7 integrin) [nM] | Compound
1 | > 1000 | < 10 | COc1ccc(CN2CCC[C@@H](F)C2)c(OC)c1-c1cccc2c(C[C@H](NC(=O)C3(C(F)(F)F)CCN(CC(F)(F)F)CC3)C(=O)O)cccc12 [Compound 841]
2 | 100 to 1000 | < 10 | COc1ccc(CN2CCC[C@H](F)C2)c(OC)c1-c1cccc2c(C[C@H](NC(=O)C3(C(F)(F)F)CCN(CC(F)(F)F)CC3)C(=O)O)cccc12 [Compound 842]
3 | > 1000 | < 10 | COc1cnc(CN2CCC(C)C(F)(F)CC2)cc1-c1cccc2c(C[C@H](NC(=O)C3(C(F)(F)F)CCN(CC(F)(F)F)CC3)C(=O)O)cccc12 (stereo partly drawn) [Compound 843]
4 | 100 to 1000 | < 10 | COc1ccc(CN2CCC(C(F)(F)F)CC2)c(OC)c1-c1cccc2c(C[C@H](NC(=O)C3(C(F)(F)F)CCN(CC(F)(F)F)CC3)C(=O)O)cccc12 [Compound 844]
5 | > 1000 | 10 to 100 | COc1ccc(CN2CC3CCC(C2)O3)c(OC)c1-c1cccc2c(C[C@H](NC(=O)C3(C(F)(F)F)CCN(CC(F)(F)F)CC3)C(=O)O)cccc12 [Compound 845]
6 | > 1000 | 10 to 100 | Cn1c(=O)c(-c2cccc3c(C[C@H](NC(=O)C4(C(F)(F)F)CCN(CC(F)(F)F)CC4)C(=O)O)cccc23)c(C(F)(F)F)c2ccc(CN3CCC(F)(F)CC3)cc21 [Compound 846]
7 | > 1000 | 10 to 100 | COc1cc(CN2CCC(F)(F)CC2)cc(C(F)(F)F)c1-c1cccc2c(C[C@H](NC(=O)C3(C(F)(F)F)CCN(CC(F)(F)F)CC3)C(=O)O)cccc12 [Compound 847]
8 | > 1000 | 10 to 100 | COc1cc(CN2CCC[C@H](F)C2)cc(C(F)(F)F)c1-c1cccc2c(C[C@H](NC(=O)C3(C(F)(F)F)CCN(CC(F)(F)F)CC3)C(=O)O)cccc12 [Compound 848]
9 | > 1000 | 10 to 100 | COc1cc(CN2CCC[C@@H](F)C2)cc(C(F)(F)F)c1-c1cccc2c(C[C@H](NC(=O)C3(C(F)(F)F)CCN(CC(F)(F)F)CC3)C(=O)O)cccc12 [Compound 849]
10 | 100 to 1000 | 10 to 100 | COc1ccc(CCN2CCC(F)(F)CC2)c(C(F)(F)F)c1-c1cccc2c(C[C@H](NC(=O)C3(C(F)(F)F)CCN(CC(F)(F)F)CC3)C(=O)O)cccc12 [Compound 850]
11 | 100 to 1000 | < 10 | COc1cc(CN2CCC(F)CC2)cc(OC)c1-c1cccc2c(C[C@H](NC(=O)C3(C(F)(F)F)CCN(CC(F)(F)F)CC3)C(=O)O)cccc12 [Compound 851]
12 | > 1000 | 10 to 100 | O=C(O)[C@H](Cc1cccc2c(-c3ncc(CN4CCC[C@H](F)C4)c4ccccc34)cccc12)NC(=O)C1(C(F)(F)F)CCN(CC(F)(F)F)CC1 [Compound 852]
13 | > 1000 | 10 to 100 | O=C(O)[C@H](Cc1cccc2c(-c3ncc(CN4CCC(F)(F)CC4)c4ccccc34)cccc12)NC(=O)C1(C(F)(F)F)CCN(CC(F)(F)F)CC1 [Compound 853]
14 | 100 to 1000 | < 10 | CC1(C)CCN(Cc2cnc(-c3cccc4c(C[C@H](NC(=O)C5(C(F)(F)F)CCN(CC(F)(F)F)CC5)C(=O)O)cccc34)c3ccccc23)CC1 [Compound 854]
15 | > 1000 | 10 to 100 | O=C(O)[C@H](Cc1cccc2c(-c3ncc(CN4CCC[C@@H](F)C4)c4ccccc34)cccc12)NC(=O)C1(C(F)(F)F)CCN(CC(F)(F)F)CC1 [Compound 855]
16 | > 1000 | 10 to 100 | O=C(O)[C@H](Cc1cccc2c(-c3ncc(CN4CCOC(C(F)(F)F)C4)c4ccccc34)cccc12)NC(=O)C1(C(F)(F)F)CCN(CC(F)(F)F)CC1 (stereo partly drawn) [Compound 856]

Row | IC50 (α4β1 integrin) [nM] | IC50 (α4β7 integrin) [nM] | Compound
17 | > 1000 | 10 to 100 | O=C(O)[C@H](Cc1cccc2c(-c3ncc(CN4CCC5(CCCCC5)CC4)c4ccccc34)cccc12)NC(=O)C1(C(F)(F)F)CCN(CC(F)(F)F)CC1 [Compound 857]
18 | > 1000 | 10 to 100 | O=C(O)[C@H](Cc1cccc2c(-c3ncc(CN4CCOC(C(F)(F)F)C4)c4ccccc34)cccc12)NC(=O)C1(C(F)(F)F)CCN(CC(F)F)CC1 (stereo partly drawn) [Compound 858]
19 | > 1000 | < 10 | O=C(O)[C@H](Cc1cccc2c(-c3ncc(CN4CCC[C@H](F)C4)c4ccccc34)cccc12)NC(=O)C1(C(F)(F)F)CCN(CC(F)F)CC1 [Compound 859]
20 | > 1000 | < 10 | O=C(O)[C@H](Cc1cccc2c(-c3ncc(CN4CCC[C@@H](F)C4)c4ccccc34)cccc12)NC(=O)C1(C(F)(F)F)CCN(CC(F)F)CC1 [Compound 860]
21 | 100 to 1000 | < 10 | CC1(C)CCN(Cc2cnc(-c3cccc4c(C[C@H](NC(=O)C5(C(F)(F)F)CCN(CC(F)F)CC5)C(=O)O)cccc34)c3ccccc23)CC1 [Compound 861]
22 | > 1000 | < 10 | O=C(O)[C@H](Cc1cccc2c(-c3ncc(CN4CCOCC4)c4ccccc34)cccc12)NC(=O)C1(C(F)(F)F)CCN(CC(F)(F)F)CC1 [Compound 862]
23 | > 1000 | 10 to 100 | C[C@@H]1CN(Cc2cnc(-c3cccc4c(C[C@H](NC(=O)C5(C(F)(F)F)CCN(CC(F)(F)F)CC5)C(=O)O)cccc34)c3ccccc23)C[C@H](C)O1 [Compound 863]
24 | > 1000 | < 10 | O=C(O)[C@H](Cc1cccc2c(-c3nccc4cccc(CN5CCCCC5)c34)cccc12)NC(=O)C1(C(F)(F)F)CCN(CC(F)(F)F)CC1 [Compound 864]
25 | > 1000 | 10 to 100 | O=C(O)[C@H](Cc1cccc2c(-c3ncc(CN4CC(F)C4)c4ccccc34)cccc12)NC(=O)C1(C(F)(F)F)CCN(CC(F)(F)F)CC1 [Compound 865]
26 | > 1000 | < 10 | COC1CN(Cc2cnc(-c3cccc4c(C[C@H](NC(=O)C5(C(F)(F)F)CCN(CC(F)(F)F)CC5)C(=O)O)cccc34)c3ccccc23)C1 [Compound 866]
27 | > 1000 | < 10 | O=C(O)[C@H](Cc1cccc2c(-c3ncc(CN4CCN(C5CC5)CC4)c4ccccc34)cccc12)NC(=O)C1(C(F)(F)F)CCN(CC(F)(F)F)CC1 [Compound 868]
28 | > 1000 | 10 to 100 | O=C(O)[C@H](Cc1cccc2c(-c3ncc(CN4CCCC(F)(F)CC4)c4ccccc34)cccc12)NC(=O)C1(C(F)(F)F)CCN(CC(F)(F)F)CC1 [Compound 869]
29 | > 1000 | < 10 | O=C(O)[C@H](Cc1cccc2c(-c3ncc(CN4CCOCC45CC5)c4ccccc34)cccc12)NC(=O)C1(C(F)(F)F)CCN(CC(F)(F)F)CC1 [Compound 870]
30 | > 1000 | 10 to 100 | O=C(O)[C@H](Cc1cccc2c(-c3ncc(CN4CCC(F)CC4)c4ccccc34)cccc12)NC(=O)C1(C(F)(F)F)CCN(CC(F)(F)F)CC1 [Compound 871]
31 | > 1000 | 10 to 100 | O=C(O)[C@H](Cc1cccc2c(-c3ncc(CN4CC5CCC(C4)O5)c4ccccc34)cccc12)NC(=O)C1(C(F)(F)F)CCN(CC(F)(F)F)CC1 [Compound 872]
32 | > 1000 | 10 to 100 | CC1(C)CCCN(Cc2cnc(-c3cccc4c(C[C@H](NC(=O)C5(C(F)(F)F)CCN(CC(F)(F)F)CC5)C(=O)O)cccc34)c3ccccc23)C1 [Compound 873]

Row | Compound | IC50 (α4β1 integrin) [nM] | IC50 (α4β7 integrin) [nM]
33 | O=C(O)[C@H](Cc1cccc2c(-c3ncc(CN4CC5CC(C4)O5)c4ccccc34)cccc12)NC(=O)C1(C(F)(F)F)CCN(CC(F)(F)F)CC1 [Compound 867] | > 1000 | < 10

— patent US20250313535A1, “ALPHA 4 BETA 7 INTEGRIN MODULATORS AND USES THEREOF” (DICE MOLECULES SV, INC., priority 2022, published 2025)
